Laboratory results: patent publication US20130095512A1, “DEVICE FOR SORTING, CLASSIFYING, AND ASSAYING PARTITION BEHAVIOR OF CELL MEMBRANE BIOMOLECULES AND METHODS BASED THEREON” (Cornell University, priority 2010, published 2013)

Columns and labels:
Format in all cases: physicochemical
[1] = Stamped patterned bilayers, electric field-induced migration and partitioning into raft regions; conditions: stamped raft regions in fluid phase bilayer, FIG. 3
Text: In one embodiment, the separation bilayer is patterned with multiple phases (raft and non-raft) that interact with species differentially to effect a separation analogous to a chromatographic separation strategy (FIG. 3). Here differently partitioning behavior serves to change the mobility of one species relative to the other such that they become separated. FIG. 3 illustrates how patterned bilayers of a BPD can be made and used for separation purposes. In one embodiment of the method for making a BPD, the steps can comprise: (A) Forming a bilayer via vesicle fusion of one composition, then (B) selectively remove by stamping regions where the second phase is desired. Back filling with the second vesicles (B). Stamping out a thin section of bilayer where a third vesicle formulation fuses; these vesicles contain the species to be separated (denoted by the mixture of light and dark circles arranged in a thin rectangle). An electric field can then be applied to induce the mixed charged species to migrate through the bilayer and partition as they sample the different regions of the bilayer. […] The GM1 is labeled with Alexa-594, which makes it, and the rafts in which they are located, appear bright.

[2] = Partitioning kinetics of membrane biomolecules in patterned two-phase coexistent supported lipid bilayers in a microfluidic channel (BPD); conditions: for K (eq) partition coefficient: concentration in raft phase over POPC-rich phase from fluorescence intensity after equilibrating 2 hrs; for partitioning between raft phase and POPC-rich phase at equilibrium: flow stopped, equilibrated for 2 hrs; for k+ (association rate constant): from POPC-rich phase (70/20/10 POPC/PSM/Chol) to raft phase, first order, initial slope of NR-α plot; for k− (dissociation rate constant): from raft phase to POPC-rich phase, reversed flow after 2 hrs equilibration; for K (=k+/k−) partition coefficient: ratio of association/dissociation kinetic parameters
Text: Preparation of patterned two-phase coexistent lipid bilayers in a microfluidic device. Supported lipid bilayers (SLBs) are commonly formed by the rupture and self-assembly of large unilamellar lipid vesicles in solution onto glass (Brian, A. A.; McConnell, H. M. Proc. Natl. Acad. Sci. USA 1984, 81, 6159; Johnson, J. M.; Ha, T.; Chu, S.; Boxer, S. G. Biophysical Journal 2002, 83, 3371) or other oxidized supports (Richter, R. P.; Borat, R.; Brisson, A. R. Langmuir 2006, 22, 3497), as illustrated in FIG. 17a. A bilayer is formed during laminar flow conditions instead of under stagnant incubation. Laminar flow is an advantage for patterning heterogeneous bilayers in microfluidic channels because reagents follow streamlines with minimal mixing (Kam, L.; Boxer, S. G. Journal of the American Chemical Society 2000, 122, 12901). Thus, lipid vesicles of different compositions can be sent through the channel on different streamlines and upon rupture will form contiguous, parallel bilayers of different compositions with stable interfaces, if the compositions are chosen so that they are phase stable.
Formation of contiguous patterned membrane and loading and transport of membrane-bound biomolecules. […] A contiguous lipid membrane is formed with POPC-rich phase (70/20/10 molar ratio of POPC/PSM/Chol), raft phase (60/40 molar ratio of PSM/Chol), and the membrane loaded with 1 mol % of Alexa-594 head-labeled GM1 and 1 mol % of head-labeled BODIPY-DHPE doped in the POPC-rich phase.
Partitioning kinetic measurements by monitoring species' concentrations in the raft phase with time. […] The partitioning assay was carried out in three stages: association stage, equilibrium stage, and dissociation stage (FIGS. 13a-c). The experimental procedure and analyses are somewhat analogous to the measurement of adsorption/desorption binding kinetics by surface plasmon resonance (SPR) (Wegner, G. J.; Wark, A. W.; Lee, H. J.; Codner, E.; Saeki, T.; Fang, S.; Corn, R. M. Analytical Chemistry 2004, 76, 5677), except here there is a 2-D planar geometry and observing association/dissociation kinetics of membrane-bound biomolecules to/from a lipid membrane phase along an interface. To obtain association kinetics from POPC-rich phase to raft phase, target species in the POPC-rich phase were brought to a pristine raft phase and the amount entering into the raft phase in the control volume was monitored with time (FIG. 13a, stage 1). After most of the species initially loaded in the channel entered into the main partitioning channel, the next step was to stop the convective flow and wait until the system equilibrated (FIG. 13a, stage 2). Equilibration was confirmed when the concentration profile no longer changed across the channel. Finally, to obtain dissociation kinetics, the net amount of species leaving the raft phase was monitored when the hydrodynamic flow was reversed and fresh POPC-rich phase membrane could be monitored for the re-association of molecules now moving from the raft phase back into the POPC-rich phase (FIG. 13a, stage 3). Three different molecules were tested: Alex594-head-labeled GM1, BODIPY-tail-labeled GM1, and head-labeled BODIPY-DHPE.
Theory of partitioning kinetic analyses. The association/dissociation kinetics of fluorescently-labeled species was analyzed into/from the raft phase using a mass-balance approach. A control volume used for the mass balance is illustrated in FIG. 14. The accumulation of species in the raft phase over time can be represented as:
Association kinetic analysis. To obtain the association kinetic information from the POPC-rich phase to the raft phase, the experiment was operated in such a way so that only the association term, r+, is important and the dissociation term and the convective flow rate terms can be neglected in Equation 1. At the beginning of the experiment, a hydrodynamic force was provided to move the species into the control volume (the white box in FIG. 14). […]

[3] = Lipid diffusion measurements by fluorescence recovery after photobleaching (FRAP) in supported lipid bilayers
Method: Lipid Diffusion Measurements. Diffusion coefficients of all biomolecule targets in each phase were determined by fluorescence recovery after photobleaching (FRAP). To measure the diffusion coefficient and mobile fraction of the biomolecule in a supported bilayer, liposomes of the same composition used in experiments were prepared with 0.1% of either BODIPY DHPE or GM1. 0.5 mg/ml liposomes were incubated in a PDMS well attached to a piranha cleaned slide. Lipid vesicles were allowed to incubate for 5 minutes, before being rinsed with buffer for one minute. In the case of the POPC-rich phase bilayer, the entire process is at room temperature. In the case of the raft phase bilayer, the prepared vesicle solutions were heated to 65° C. (a temperature above the miscibility transition temperature of the lipid mixture). The warm vesicle solutions were added to wells heated to 65° C. and were later rinsed with the buffer at 65° C. Following the formation of the raft phase bilayer, the heated sample was gently cooled down to room temperature prior measuring the diffusion coefficient.
To aid in focusing on the plane of the bilayer on the microscope, the bilayer was scratched with a dissection tool to remove a thin line of bilayer. Following the scratching step, the bilayer was rinsed again for one minute with buffer to remove any lipids in the bulk that were removed by scratching. A 20 μm diameter spot in the supported lipid bilayer was bleached with a laser for 200 ms. The recovery of the photobleached spot was recorded for 10 minutes for the POPC-rich phase sample and one hour for the raft phase sample. The fluorescence intensity of the bleached spot was determined after background subtraction and normalization for each image. The recovery data was fit using the method of Soumpasis (Zheng Y Z, Foster L J. Biochemical and Proteomic Approaches for the Study of Membrane Microdomains. Proteomics. 2009; 72:12-22). The diffusion coefficient, D, was then calculated using the following equation: D=w^2/4t1/2, where w is the full width at half-maximum of the Gaussian profile of the focused beam. The average diffusion coefficient and mobile fractions were determined from three separate samples of each sample and are listed in Table 2. These values are in line with numerous reports of lipid diffusion in supported bilayers.

[4] = Partitioning in the BPD on CTB binding; conditions: CTB binds to GM1
Text: βCD-mediated efflux is used to disrupt raft microdomains and stimulate a change in GM1 partitioning. Changes in partitioning of both GM1 and PLAP can also be induced by binding to CTB and/or antibodies (Kahya N, Brown D A, Schwille P. Raft Partitioning and Dynamic Behavior of Human Placental Alkaline Phosphatase in Giant Unilamellar Vesicles. Biochemistry. 2005; 44:7479-89). Antibody binding is known to cause several-fold enrichment in the raft phase of both targets and detection will be straightforward using fluorescence labels or conjugates.

[5] = POPC-rich phase (70/20/10 POPC/PSM/Chol)

Molecule | partitioning into raft regions [1] | K (eq) partition coefficient [2] | partitioning between raft phase and POPC-rich phase at equilibrium [2] | k+ (association rate constant) [2] | k− (dissociation rate constant) [2] | K (=k+/k−) partition coefficient [2] | Diffusion coefficient [3, 5] | Diffusion coefficient ([3]; Raft phase (60/40 PSM/Chol)) | rate of the molecule to pass across the interface ([2]; from Table 1) | Diffusion coefficient ([3]; POPC-rich phase) | rate for a molecule to diffuse to the interface ([3]; diffusion coefficient/distance, 1 μm away in the POPC-rich phase, rough estimate) | Diffusion coefficient ([3]; raft phase) | diffusion rate from the interface into the middle of the raft patch ([3]; ~100 nm, raft phase, estimate) | enrichment in the raft phase on CTB binding [4]
CCCCCCCCCCCCCCCC(=O)OC[C@H](COP(=O)(O)OCCNC(=O)CCc1ccc2n1[B-](F)(F)[N+]1=C(C)C=C(C)C1=C2)OC(=O)CCCCCCCCCCCCCCC.CCN(CC)CC [Head-labeled BODIPY-DHPE, N-(4,4-difluoro-5,7-dimethyl-4-bora-3a,4a-diaza-s-indacene-3-propionyl)-1,2-dihexadecanoyl-sn-glycero-3-phosphoethanolamine, triethylammonium salt] | exclusion of BODIPY DHPE lipids from rafts regions | 0.6 | most of BODIPY-DHPE remains in the POPC-rich phase | 0.57 ± 0.08 μm/min | 0.98 ± 0.04 μm/min | 0.58 | 0.63 μm^2/s | 0.05 μm^2/s | – | – | – | – | – | –
BODIPY®FL C5-ganglioside GM1 [Tail-labeled GM1] | – | 0.75 | – | 0.64 ± 0.07 μm/min | 0.72 ± 0.05 μm/min | 0.89 | 0.82 μm^2/s | 0.08 μm^2/s | – | – | – | – | – | –
bovine brain asialoganglioside-GM1 labeled with Alexa Fluor® 594 hydrazide [Head-labeled GM1] | preferential partitioning of GM1 lipids into raft regions | 1.96 | Most of GM1 partitions to the raft phase | 1.53 ± 0.03 μm/min | 0.85 ± 0.03 μm/min | 1.8 | 0.77 μm^2/s | 0.06 μm^2/s | ~0.025 µm/s | 0.77 μm^2/sec | 0.77 μm/sec | 0.06 μm^2/sec | 0.6 μm/sec | enrichment was observed
